What was measured:
Assay in all cases: relative viability (nuclei count vs DMSO), 5 days (fraction); higher = more cells survive
[1] = compound: CC1=C(CC(=O)O)c2cc(F)ccc2/C1=C\c1ccc([S+](C)[O-])cc1 [Sulindac] + CC(=O)Nc1cccc(-n2c(=O)n(C3CC3)c(=O)c3c(Nc4ccc(I)cc4F)n(C)c(=O)c(C)c32)c1 [Trametinib] (partner 0.02 µM)
Method in brief: (§1)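 Relative viability is defined as nuclei in treated wells over nuclei in vehicle wells. Duplicate plates were run and medians reported. Lung cancer cell lines in 1536-well plates were dosed by pin tool one day after seeding, with one drug or with a fixed anchor-drug dose plus five library-drug doses (not always all listed) in √10 steps, and nuclei were counted after 5 days.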

[2] = compound: CC1=C(CC(=O)O)c2cc(F)ccc2/C1=C\c1ccc([S+](C)[O-])cc1 [Sulindac] + Nc1ncn([C@H]2C[C@H](O)[C@@H](CO)O2)c(=O)n1 [Decitabine] (partner 2 µM)
Method in brief: as §1

[3] = compound: O=c1[nH]cc(F)c(=O)[nH]1 [5-Fluorouracil] + CCNC(=O)c1noc(-c2cc(C(C)C)c(O)cc2O)c1-c1ccc(CN2CCOCC2)cc1 [Luminespib] (partner 0.01 µM)
Method in brief: as §1

[4] = compound: O=c1[nH]cc(F)c(=O)[nH]1 [5-Fluorouracil] + Cc1nc(Nc2ncc(C(=O)Nc3c(C)cccc3Cl)s2)cc(N2CCN(CCO)CC2)n1 [Dasatinib] (partner 0.075 µM)
Method in brief: as §1

UMC-11
relative viability ([1]; first compound 0.08 µM): 0.733 | relative viability ([1]; first compound 0.253 µM): 0.764 | relative viability ([1]; first compound 0.8 µM): 0.679 | relative viability ([1]; first compound 2.53 µM): 0.654 | relative viability ([1]; first compound 8 µM): 0.757 | relative viability ([2]; first compound 0.08 µM): 0.595 | relative viability ([2]; first compound 0.253 µM): 0.627 | relative viability ([2]; first compound 0.8 µM): 0.535 | relative viability ([2]; first compound 2.53 µM): 0.584 | relative viability ([2]; first compound 8 µM): 0.65 | relative viability ([3]; first compound 0.02 µM): 0.954 | relative viability ([3]; first compound 0.2 µM): 0.68 | relative viability ([3]; first compound 0.6325 µM): 0.516 | relative viability ([3]; first compound 2 µM): 0.396 | relative viability ([4]; first compound 0.02 µM): 0.52 | relative viability ([4]; first compound 0.2 µM): 0.467 | relative viability ([4]; first compound 0.6325 µM): 0.438 | relative viability ([4]; first compound 2 µM): 0.358

Reference: the supplement of paper PMC10307832
